Measured values as given in patent US20020037872A1, “N6 heterocyclic 5' modified adenosine derivatives” (CV Therapeutics, Inc., priority 1999, published 2002).

How the values were obtained:
[1] = molecular target: T1, A1 receptor (Mesocricetus auratus, UniProt A0A1U8BVR4); assay: Competitive binding assay, DDT1 cell membranes, [3H]CCPA; design: species or system hamster; details: [3H]CCPA 2 nM, DDT1 cell membranes; read-out: Ki-DDT1 cell membrane
T1 construct: endogenous in cells; host or cells: DDT1 (DDT1 MF-2) hamster vas deferens smooth muscle cells
T1 sequence (A0A1U8BVR4 1-326): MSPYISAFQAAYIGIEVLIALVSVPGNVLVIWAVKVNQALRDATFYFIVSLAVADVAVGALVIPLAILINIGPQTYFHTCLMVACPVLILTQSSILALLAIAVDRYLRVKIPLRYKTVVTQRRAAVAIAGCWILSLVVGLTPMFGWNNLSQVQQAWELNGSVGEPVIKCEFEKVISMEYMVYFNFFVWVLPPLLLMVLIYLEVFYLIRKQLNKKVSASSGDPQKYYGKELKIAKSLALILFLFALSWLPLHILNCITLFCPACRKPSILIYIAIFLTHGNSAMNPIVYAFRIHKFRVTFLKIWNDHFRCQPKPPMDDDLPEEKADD
Method: Cells were subcultured twice weekly by dispersion in Hank's Balanced Salt Solution (HBSS) without the divalent cations and containing 1 mM EDTA. The cells were then seeded in growth medium at a density of 1.2×10^5 cells per plate and experiments were performed 4 days later at approximately one day preconfluence.
(§1) Attached cells were washed twice with HBSS (2×10 ml), scraped free of the plate with the aid of a rubber policeman in 5 ml of 50 mM Tris-HCI buffer pH 7.4 at 4° C. and the suspension homogenized for 10 s. The suspension was then centrifuged at 27,000×g for 10 min. The pellet was resuspended in homogenization buffer by vortexing and centrifuged as described above. The final pellet was resuspended in 1 vol of 50 mM Tris-HCI buffer pH 7.4 containing 5 mM MgCl2 for A1 AdoR assays. For the [^35S]GTPγS binding assay the final pellet was resuspended in 50 mM Tris-HCI pH 7.4 containing 5 mM MgCl2, 100 mM NaCl and 1 mM dithiothreitol. This membrane suspension was then placed in liquid nitrogen for 10 min, thawed and used for assays.
Competitive Binding Assay Pig striatum were prepared by homogenation in 50 mM Tris buffer (5× volume of tissue mass pH=7.4). After centrifilgation at 19,000 rpm for 25 minutes at 4° C., the supernatant was discarded, and the process was repeated twice. Compositions of this invention were assayed to determine their affinity for the A1 receptor in a pig striatum membrane prep or a DDT, membrane prep. Briefly, 0.2 mg of pig striatal membranes or DDT, cell membranes were treated with adenosine deaminase and 50 mM Tris buffer (pH=7.4) followed by mixing. To the pig membranes was added 2 μL of serially diluted DMSO stock solution of the compounds of this invention at concentrations ranging from 100 microM to 10 nM. The control received 2 microL of DMSO alone, then the antagonist [^3H] 8-cyclopentylxanthine (CPX) for pig striatum or the agonist [^3H] 2-chloro-6-cyclopentyladenosine (CCPA) for DDT, membranes in Tris buffer (50 mnM, pH of 7.4) was added to achieve a final concentration of 2 nM. After incubation at 23 C for 2 h, the solutions were filtered using a membrane harvester using multiple washing of the membranes (3×). The filter disks were counted in scintillation cocktail affording the amount of displacement of triated CPX or by the competitive binding compositions of this invention. In the case of the DDT1 cell membranes, some of the determinations of binding affinity (Ki) were made in the presence of Gpp(NH)p as noted in Table 1 (note: Gpp(NH)p shifts the receptor to a low affinity form). Greater than a 5 point curve was used to generate Ki's and the number of experiments is indicated in the column marked in Table 1 below.

[2] = molecular target: T2, A1 adenosine receptor (Mesocricetus auratus, UniProt A0A1U8BVR4); assay: cAMP assay (SPA) in DDT1 cells, forskolin-induced cAMP; format: cell-based, hamster; details: normalized to full agonist CPA, 5 μM forskolin, 50 μM rolipram; for Emax: 10 min
T2 construct: endogenous in cells; host or cells: DDT1 (DDT1 MF-2) hamster vas deferens smooth muscle cells
T2 sequence (A0A1U8BVR4 1-326): T1 sequence (A0A1U8BVR4 1-326)
Method: A scintillation proximity assay (SPA) using rabbit antibodies directed at cAMP using an added tracer of adenosine 3′,5′-cyclic phosphoric acid 2′-O-succinyl-3-[^125I]iodotyrosine methyl ester and fluoromicrospheres containing anti-rabbit specific antibodies as described by Amersham Pharmacia Biotech (Biotrak cellular communication assays). Briefly, DDT1 cells were cultured in clear bottomed 96 well microtiter plates with opaque wells at concentrations between 10^4 to 10^6 cells per well in 40 μl of HBSS at 37° C. (5% CO2 and 95% humidity). The partial or full A1 agonists (5 μl) of this invention were incubated at various concentrations with the DDT1 cells in the presence of rolipram (50 μM), and 5 μM forskolin for 10 min at 37° C. The cells were immediately lysed by treatment 5 μl of 10% dodecyltrirnethylammonium bromide followed by shaking using rnicroplate shaker. After incubation of the plate for 5 minutes, an imnuunoreagent solution (150 μl containing equal volumes of tracer, antiserum, and SPA fluorospheres) was added to each well followed by sealing the plate. After 15-20 h at 23° C., the amount of bound [^125] cAM to the fluoromicrospheres was determined by counting in a microtitre plate scintillation counter for 2 minutes. Comparison of counts with standard curves generated for cAMP using a similar protocol afforded the cAMP present after cell lysis.

[3] = molecular target: T2, A1 adenosine receptor; assay: [35S]GTPγS binding assay, A1-agonist stimulated; format: biochemical, hamster; details: agonist stimulated [35S]GTPγS binding, CPA = 100%
Method: as §1, with “for assays. The protein content was determined by the method of Bradford (1976) using bovine serum albumin as standard.” for “for assays.”
A1-agonist stimulated [^35S]GTPγS binding was determined by a modification of the method described by Giersckik et al. (1991) and Lorenzen et al. (1993). […] Nonspecific binding was determined by the addition of 10 μM GTPγS. […] Previous reports have shown that agonist stimulated [^35S]GTPγS binding was dependent on the presence of GDP (Gierschik et al., 1991; Lorenzen et al., 1993; Traynor & Nahorski, 1995). […] In saturation experiments, 0.5 nM [^35S]GTPγS was incubated with 0.5-1000 nM GTPγS. At the end of the incubation, each suspension was filtered and the retained radioactivity determined as described above.

SMILES	Ki [1]	Emax [2]	Emax [3]	cAMP [2]	GTPγS [3]
CCOC(=O)C1C2C=CC(C2)C1NC(=O)OCC1OC(n2cnc3c(N[C@@H]4CCOC4)ncnc32)C(O)C1O (stereo partly drawn) [Compound 35, Ethyl 3-{[5-{6-[(3R)oxolan-3-yl)amiinolpurin-9-yl}(3S,2R,4R,5R)-3,4-dihydroxyoxolan-2-yl)methoxylcarbonylamino)(2S,3R)bicylo[2.2.]hept-5-ene2-carboxylate]	1010 nM	-4%	52%	–	–
OC1CCCC1NC(=S)OCC1OC(n2cnc3c(N[C@@H]4CCOC4)ncnc32)C(O)C1O (stereo partly shown) [Compound 63]	–	115%	100%	–	–
O=C(NC1CCCC1OCc1ccccc1)OCC1OC(n2cnc3c(N[C@@H]4CCOC4)ncnc32)C(O)C1O (stereo partly shown) [Compound 37]	4240 nM	–	–	−6%	30%
CNC(=S)SCC1OC(n2cnc3c(NC4CCOC4)ncnc32)C(O)C1O [Compound 74, 2-{6[((3R)oxolan-3-yl)ainio]purin-9yl}(4S,5S,2R,3R)5-{[(methylamniio)thioxomethylthio]methyl}oxolane3,4diol]	–	82%	95%	–	–
COC(=O)CNC(=O)OCC1OC(n2cnc3c(N[C@@H]4CCOC4)ncnc32)C(O)C1O (stereo partly shown) [Compound 43]	1700 nM	28%	53%	–	–
CCOC(=O)C1C2CCC(C2)C1NC(=O)OCC1OC(n2cnc3c(N[C@@H]4CCOC4)ncnc32)C(O)C1O (stereo partly drawn) [Compound 36, Ethyl 3-{[5-{6-[(3R)oxolan-3-yl)aminolpurin-9-yl}(3S,2R,4R,5R)-3,4-dihydroxyoxolan-2-yl)methoxylcarbonylamino}(2S,3R)bicylo[2.2.1]heptane-2-carboxylate]	1520 nM	10%	41%	–	–
OC1C(COC(=S)NC2CCCC2OCc2ccccc2)OC(n2cnc3c(N[C@@H]4CCOC4)ncnc32)C1O (stereo partly shown) [Compound 56]	1240 nM	–	–	43%	52%
C=CCNC(=O)OC[C@H]1O[C@@H](n2cnc3c(N[C@@H]4CCOC4)ncnc32)[C@H](O)[C@@H]1O [Compound 41, [(5-{6[((3R)oxolan-3-yl)amino]purin-9-yl}(3S, 2R, 4R, 5R)-3,4-dihydroxyoxolan-2-yl)methoxy]-N-prop2-enylcarboxamide]	668 nM	17%	48%	–	–
OC1C(COC(=S)NC2CCC2)OC(n2cnc3c(N[C@@H]4CCOC4)ncnc32)C1O (stereo partly drawn) [Compound 58, 2-{1[((3)oxolan-3-yl)amino]purin-9-yl}(4S,2R,3R,5R)-5-{[(cyclobutylamino)thioxomethoxy]methyl}oxolane-3,4-diol]	–	78%	79%	–	–
O=C(NC1CCCC1O)OCC1OC(n2cnc3c(N[C@@H]4CCOC4)ncnc32)C(O)C1O (stereo partly shown) [Compound 62]	2190 nM	23%	42%	–	–
OC1CCCC1NC(=S)OCC1OC(n2cnc3c(N[C@@H]4CCOC4)ncnc32)C(O)C1O (stereo partly shown) [Compound 64]	–	–	–	110%	99%
O=C(NC1CCCC1)OCC1OC(n2cnc3c(NC4CCOC4)nc(Cl)nc32)C(O)C1O [Compound 69, [(5-16-[((3R)oxolan-3-yl)amino]-2-chloropurin-9-yl}(3S,2R,4R,5R)-3,4-dihydroxyoxolan-2-yl)methoxy]-N-cyclopentylcarboxamide]	380 nM	18%	50%	–	–
O=C(NC1CCCC1OCc1ccccc1)OCC1OC(n2cnc3c(N[C@@H]4CCOC4)ncnc32)C(O)C1O (stereo partly shown) [Compound 38]	–	–	–	−25%	1%
COC(=O)NCC1OC(n2cnc3c(N[C@@H]4CCOC4)ncnc32)C(O)C1O (stereo partly shown) [Compound 18]	–	86%	77%	–	–
O=C(NCC1OC(n2cnc3c(N[C@@H]4CCOC4)ncnc32)C(O)C1O)OC1CCCC1 (stereo partly shown) [Compound 70]	–	79%	76%	–	–
CCOC(=O)CCNC(=O)OCC1OC(n2cnc3c(N[C@@H]4CCOC4)ncnc32)C(O)C1O (stereo partly shown) [Compound 42]	3150 nM	16%	47%	–	–
COC(=S)NCC1OC(n2cnc3c(N[C@@H]4CCOC4)ncnc32)C(O)C1O (stereo partly shown) [Compound 71]	–	94%	98%	–	–
OC1C(CNC(=S)OC2CCCC2)OC(n2cnc3c(N[C@@H]4CCOC4)ncnc32)C1O (stereo partly drawn) [Compound 72, 2-{6-[((3R)oxolan-3-yl)amino]purin-9-yll(4S,2R,3R,5R)5-{[cyclopentyloxythioxomethyl)amino]methyl}oxolane3,4-diol]	–	103%	93%	–	–
OC1C(COC(=S)NC2CC2)OC(n2cnc3c(N[C@@H]4CCOC4)ncnc32)C1O (stereo partly shown) [Compound 59]	–	115%	82%	–	–
O=c1occn1CC1OC(n2cnc3c(N[C@@H]4CCOC4)ncnc32)C(O)C1O (stereo partly shown) [Compound 80]	–	64%	80%	–	–
OC1C(COC(=S)NC2CCCC2OCc2ccccc2)OC(n2cnc3c(N[C@@H]4CCOC4)ncnc32)C1O (stereo partly shown) [Compound 57]	–	–	67%	73%	–
O=C(NC1CCCC1C(=O)O)OCC1OC(n2cnc3c(N[C@@H]4CCOC4)ncnc32)C(O)C1O (stereo partly shown) [Compound 65]	–	95%	81%	–	–
O=C(NC1CC1c1ccccc1)OC[C@H]1O[C@@H](n2cnc3c(N[C@@H]4CCOC4)ncnc32)[C@H](O)[C@@H]1O (stereo partly drawn) [Compound 40, [(5-{6-[((3R)oxolan-3-yl)amino}purin-9-yl}(3S,2R,4R,5R)-3,4-dihydroxyoxolan-2-yl)methoxy]-N-(2-phenylcyclopropyl)carboxamide]	–	-14%	-6%	–	–
